This is an account of results in patent EP2222702B1, “HUMAN […] SPECIFIC ANTIBODIES” (Cytos Biotechnology AG, priority 2007, dated 2009).

The subject of experiment [1] is human monoclonal nicotine-specific antibody IgG2-F018 (HCVR SEQ ID NO:24, LCVR SEQ ID NO:26). The experiment is described as follows: Equilibrium dialysis, affinity and competition. It is filed as binding. The conditions noted are these: for Cross-reactivity: competition with tritium-labeled (S)-(-)-nicotine for binding to IgG2-F018: 56 nM tritium-labeled (S)-(-)-nicotine, IgG2-F018 50 nM, unlabeled compound 1 nM to 100 µM, acetylcholine even at a 4000 fold molar excess. Here is the method:
Figure 1. Specificity of IgG2-F018. The binding of tritium-labeled (-)-nicotine (56 nM) to IgG2-F018 (50 nM) was measured by equilibrium dialysis in the presence of increasing concentrations of unlabeled (-)-nicotine, (-)-cotinine or acetylcholine. Averages of two independent experiments are given with standard deviation.
(§1) Affinity of antibodies for (S)-(-)-nicotine was determined by equilibrium dialysis using a DispoEquilibriumDialyzer (Harvard Biosciences). Two chambers of the dialyzer were separated by a membrane (10'000 Da cut-off). […] Concentrations of tritium-labeled (S)-(-)-nicotine (Amersham) ranging from 3 to 444 nM were used. Equilibrium dialysis was allowed to proceed for 48-72 h. Aliquots from both sides of the chamber were taken and radioactivity measured in a scintillation counter. Radioactivity corresponding to antibody-bound (S)-(-)-nicotine was calculated by subtracting the radioactivity measured for the chamber containing no antibody from the one containing the antibody. The free (S)-(-)-nicotine concentration was determined from the radioactivity measured for the chamber containing no antibody. The equilibrium dissociation constant (Kd) was derived from the fit of a one-site binding model to the measured bound radioactivity as a function of the free (S)-(-)-nicotine concentration. […]
Cross-reactivity of mAb IgG2-F018 to (-)-cotinine and acetylcholine was determined by co-incubation of 10 fold serial dilutions of these compounds (1 nM to 100 µM) with 56 nM tritium-labeled (S)-(-)-nicotine in the equilibrium dialysis chambers as described above (Figure 1).
(§2) We next determined the affinities of mAbs IgG2-F018, -F063, -J004, -J042 and-N049 for the (R)-(+)-isomer of nicotine. This stereoisomer is present in the tobacco plant. In addition, it can be formed by the combustion process during smoking and has qualitatively similar activities on the central nervous system as (S)-(-)-nicotine (Hukkanen J. et al., 2005, Pharmacol. Rev. 57, 79-115). Thus, the binding of a fixed concentration of tritium-labeled (S)-(-)-nicotine (F018: 56 nM; F063, J004, J042, N049: 111 nM) to each of the antibodies was measured by equilibrium dialysis in the presence of increasing concentrations of unlabeled (R)-(+)-nicotine (1 nM to 100 µM). The equilibrium dissociation constant (Kd) was derived from the fit of a one-site competition model to the measured bound radioactivity as a function of the (R)-(+)-nicotine concentration. […] Table 5. Dissociation constants Kd (nM) of antibody-(R)-(+)-nicotine interactions measured by equilibrium dialysis.
On the technique in general: In equilibrium dialysis free small molecules cross a membrane that holds back macromolecules.

Experiment [2] addresses human monoclonal nicotine-specific antibody F018, scFv-Fc fusion (scFv SEQ ID NO:60; HCVR SEQ ID NO:24, LCVR SEQ ID NO:26). The conditions noted are these: read-out: Dissociation constant Kd, (S)-(-)-nicotine; scFv-Fc 5.4 µg/ml in PBS/2% BSA; tritium-labeled (S)-(-)-nicotine 3 to 444 nM; 48-72 h; mean ± SD of at least 2 independent experiments. How it is done: as §1
The target of experiment [3] is human monoclonal nicotine-specific antibody F063, scFv-Fc fusion (scFv SEQ ID NO:62; HCVR SEQ ID NO:28, LCVR SEQ ID NO:31). The settings on record: read-out: Dissociation constant Kd, (S)-(-)-nicotine; scFv-Fc 5.4 µg/ml in PBS/2% BSA; tritium-labeled (S)-(-)-nicotine 3 to 444 nM; 48-72 h; mean ± SD of at least 2 independent experiments. Here is the method: as §1
In experiment [4] the target is human monoclonal nicotine-specific antibody I022, scFv-Fc fusion (scFv SEQ ID NO:70; HCVR SEQ ID NO:43, LCVR SEQ ID NO:45). The conditions noted are these: read-out: Dissociation constant Kd, (S)-(-)-nicotine; scFv-Fc 5.4 µg/ml in PBS/2% BSA; tritium-labeled (S)-(-)-nicotine 3 to 444 nM; 48-72 h; mean ± SD of at least 2 independent experiments. Here is the method:
as §1

Experiment [5] addresses human monoclonal nicotine-specific antibody IgG2-I022 (HCVR SEQ ID NO:43, LCVR SEQ ID NO:45). The settings on record: read-out: Dissociation constant Kd, (S)-(-)-nicotine; IgG2 7.5 µg/ml in PBS/2% BSA; tritium-labeled (S)-(-)-nicotine 3 to 444 nM; 48-72 h; mean ± SD of at least 2 independent experiments. Here is the method: as §1
The target of experiment [6] is human monoclonal nicotine-specific antibody IgG2-N038 (HCVR SEQ ID NO:47, LCVR SEQ ID NO:49). The settings on record: read-out: Dissociation constant Kd, (S)-(-)-nicotine; IgG2 7.5 µg/ml in PBS/2% BSA; tritium-labeled (S)-(-)-nicotine 3 to 444 nM; 48-72 h; measured only once. Here is the method: as §1
The target of experiment [7] is human monoclonal nicotine-specific antibody J004, scFv-Fc fusion (scFv SEQ ID NO:64; HCVR SEQ ID NO:33, LCVR SEQ ID NO:35). The conditions noted are these: read-out: Dissociation constant Kd, (S)-(-)-nicotine; scFv-Fc 5.4 µg/ml in PBS/2% BSA; tritium-labeled (S)-(-)-nicotine 3 to 444 nM; 48-72 h; mean ± SD of at least 2 independent experiments. Here is the method:
as §1

Experiment [8] has as its target human monoclonal nicotine-specific antibody J042, scFv-Fc fusion (scFv SEQ ID NO:66; HCVR SEQ ID NO:28, LCVR SEQ ID NO:37). The conditions noted are these: read-out: Dissociation constant Kd, (S)-(-)-nicotine; scFv-Fc 5.4 µg/ml in PBS/2% BSA; tritium-labeled (S)-(-)-nicotine 3 to 444 nM; 48-72 h; mean ± SD of at least 2 independent experiments. How it is done: as §1

Experiment [9] addresses human monoclonal nicotine-specific antibody N038, scFv-Fc fusion (scFv SEQ ID NO:72; HCVR SEQ ID NO:47, LCVR SEQ ID NO:49). The conditions noted are these: read-out: Dissociation constant Kd, (S)-(-)-nicotine; scFv-Fc 5.4 µg/ml in PBS/2% BSA; tritium-labeled (S)-(-)-nicotine 3 to 444 nM; 48-72 h; mean ± SD of at least 2 independent experiments. How it is done: as §1
For experiment [10], the target named is human monoclonal nicotine-specific antibody N049, scFv-Fc fusion (scFv SEQ ID NO:68; HCVR SEQ ID NO:39, LCVR SEQ ID NO:41). The settings on record: read-out: Dissociation constant Kd, (S)-(-)-nicotine; scFv-Fc 5.4 µg/ml in PBS/2% BSA; tritium-labeled (S)-(-)-nicotine 3 to 444 nM; 48-72 h; mean ± SD of at least 2 independent experiments. How it is done: as §1

In experiment [11] the target is human monoclonal nicotine-specific antibody IgG2-F063 (HCVR SEQ ID NO:28, LCVR SEQ ID NO:31). How it is done: as §1, §2
Experiment [12] addresses human monoclonal nicotine-specific antibody IgG2-J004 (HCVR SEQ ID NO:33, LCVR SEQ ID NO:35). Here is the method: as §1, §2
The target of experiment [13] is human monoclonal nicotine-specific antibody IgG2-J042 (HCVR SEQ ID NO:28, LCVR SEQ ID NO:37). How it is done: as §1, §2
The target in experiment [14] is human monoclonal nicotine-specific antibody IgG2-N049 (HCVR SEQ ID NO:39, LCVR SEQ ID NO:41). How it is done:
as §1, §2

Experiment [15] has as its target polyclonal antibodies against (S)-(-)-nicotine. The settings on record: read-out: affinity of polyclonal antibodies against (S)-(-)-nicotine; Maurer P. et al., 2005; cited from earlier work.
[16] abbreviates: read-out: Dissociation constant Kd, (S)-(-)-nicotine, IgG2 7.5 µg/ml in PBS/2% BSA, tritium-labeled (S)-(-)-nicotine 3 to 444 nM, 48-72 h, mean ± SD of at least 2 independent experiments.
The mark [17] stands for this setting: read-out: Dissociation constant Kd of antibody-(R)-(+)-nicotine interaction, competition with 111 nM tritium-labeled (S)-(-)-nicotine, unlabeled (R)-(+)-nicotine 1 nM to 100 µM, one-site competition model.

Values joined by “and” are separate entries in the source; they are usually repeats but may differ in a detail not shown here. Identical values can stand only once. Like-named read-outs stand apart in the source and are kept apart here.

On to `CN1C(=O)CC[C@H]1c1cccnc1` [(-)-cotinine], for which the “Cross-reactivity: competition with tritium-labeled (S)-(-)-nicotine for binding to IgG2-F018” value in experiment [1] was “did not effectively compete”. Further, the “Binding strength relative to (S)-(-)-nicotine (fold less strongly), estimated from the IC50 observed” value in experiment [1] (equilibrium dialysis competition with 56 nM tritium-labeled (S)-(-)-nicotine) is “about 1000 fold”.
For the molecule `CN1CCC[C@H]1c1cccnc1` [(S)-(-)-nicotine], the Kd was 11.5 ± 1.5 nM in experiment [2]; 70.5 ± 14 nM in experiment [3]; 42.5 ± 17 nM in experiment [4]; 89.9 ± 9.8 nM in [5]; 744 nM in experiment [6]; 33.3 ± 2 nM in experiment [7]. Also, the Kd was 47 ± 3.1 nM in [8]; 686 ± 58 nM in [9]; 72.7 ± 5.6 nM in experiment [10]; 7 nM and 7.4 nM in experiment [1] (IgG2 7.5 µg/ml in PBS/2% BSA, tritium-labeled (S)-(-)-nicotine 3 to 444 nM, 48-72 h, mean ± SD of at least 2 independent experiments, read-out: Dissociation constant Kd, (S)-(-)-nicotine); 31.4 ± 13 nM in experiment [11] (setting [16]); 64.5 ± 2.2 nM in experiment [12] (setting [16]). Also, the Kd in experiment [13] (setting [16]) is 30.2 ± 11 nM; in [14] (setting [16]) it was 35.6 ± 3.5 nM; in [15], 30 to 70 nM. Also, the “Cross-reactivity: competition with tritium-labeled (S)-(-)-nicotine for binding to IgG2-F018” value in experiment [1] was “readily displaced”.
Turning to `CN1CCC[C@@H]1c1cccnc1` [(R)-(+)-nicotine], the Kd in [1] (competition with 56 nM tritium-labeled (S)-(-)-nicotine, unlabeled (R)-(+)-nicotine 1 nM to 100 µM, one-site competition model, read-out: Dissociation constant Kd of antibody-(R)-(+)-nicotine interaction) came out at 3.1 nM; in experiment [11] (setting [17]), 6.6 nM; in experiment [12] (setting [17]), 12.6 nM; in experiment [13] (setting [17]), 7.7 nM; in experiment [14] (setting [17]), 10.5 nM.
